# Source: ChEMBL document CHEMBL4118139, “Novel naphthyloxy derivatives - Potent histamine H3 receptor ligands. Synthesis and pharmacological evaluation” (Bioorg Med Chem, 2018)
# Activity calls are given as the source filed them. The rule behind the calls is not given here.
# Experiments:
# Histamine H3 receptor [1] = biological target: T1, Histamine H3 receptor (Homo sapiens, UniProt Q9Y5N1); test: Displacement of [3H]N-alpha-methylhistamine from full length human H3 receptor expressed in HEK293 cell membranes after 90 mins
# T1 sequence (Q9Y5N1 whole entry): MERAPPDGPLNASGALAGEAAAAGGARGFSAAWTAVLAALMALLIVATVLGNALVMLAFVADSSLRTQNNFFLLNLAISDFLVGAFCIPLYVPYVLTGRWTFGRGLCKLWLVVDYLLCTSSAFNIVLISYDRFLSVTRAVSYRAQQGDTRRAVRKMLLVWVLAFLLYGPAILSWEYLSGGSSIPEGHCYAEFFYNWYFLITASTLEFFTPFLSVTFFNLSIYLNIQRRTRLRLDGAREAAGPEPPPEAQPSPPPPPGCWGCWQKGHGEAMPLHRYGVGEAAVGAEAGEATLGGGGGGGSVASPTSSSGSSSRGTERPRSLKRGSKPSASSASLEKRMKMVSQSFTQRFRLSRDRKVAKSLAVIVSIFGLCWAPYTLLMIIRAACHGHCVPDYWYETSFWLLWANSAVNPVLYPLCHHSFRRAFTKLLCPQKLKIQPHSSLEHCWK
# Mus musculus [2] = test: Analgesic activity in ip dosed albino Swiss CD1 mouse assessed reduction in formalin-induced inflammatory pain by measuring reduction in time spent in licking treated prior to formalin injection measured at 0 to 5 mins post formalin injection; assay type: functional
# Rattus norvegicus [3] = test: In vivo antagonist activity at H3 receptor in RAMH-induced dipsogenic Wistar (Krf:(WI) WU) rat model assessed as inhibition of RAMH-water intake at 1.25 mg/kg, ip administered 30 mins prior to RAMH induction; assay type: functional
# Mus musculus [4] = test: Analgesic activity in ip dosed albino Swiss CD1 mouse assessed reduction in formalin-induced inflammatory pain by measuring reduction in time spent in licking pretreated prior to formalin injection measured at 15 to 30 mins post formalin injection; assay type: functional
# Mus musculus [5] = test: Cognition enhancing effect in albino Swiss CD-1 mouse assessed as reversal of scopolamine-induced amnesia by measuring latency time at 30 mg/kg, ip treated 30 mins prior to acquisition trial followed by scopolamine challenge immediately after acquisition trial by passive avoidance test (reference value: 39.31 +/- 4.01 secs); assay type: functional
# Histamine H3 receptor [6] = biological target: T1, Histamine H3 receptor; test: Displacement of […] from full length recombinant human H3 receptor expressed in HEK293 cell membranes after 90 mins by scintillation counting method
# Mus musculus [7] = test: Effect on spontaneous locomotor activity in ip dosed albino Swiss CD1 mouse assessed as inhibition of number of light beam crossings treated for 30 mins measured for next 30 mins in 10 min intervals; assay type: organism-based; conditions: in vivo, 0.5 h
# Mus musculus [8] = test: Cognition enhancing effect in albino Swiss CD-1 mouse assessed as reversal of scopolamine-induced amnesia by measuring latency time at 15 mg/kg, ip treated 30 mins prior to acquisition trial followed by scopolamine challenge immediately after acquisition trial by passive avoidance test (reference value: 39.31 +/- 4.01 secs); assay type: functional
# HepG2 = test: Cytotoxicity against human HepG2 cells assessed as reduction in cell viability after 72 hrs by MTS assay; assay type: cell-based; conditions: HepG2, 72 h
# IMR-32 = test: Cytotoxicity against human IMR32 cells assessed as reduction in cell viability after 72 hrs by MTS assay; assay type: cell-based; conditions: IMR-32, 72 h
# HEK293 = test: Cytotoxicity against HEK293 cells assessed as reduction in cell viability after 72 hrs by MTS assay; assay type: cell-based; conditions: Homo sapiens, HEK293, 72 h
# Mus musculus [9] = test: Anticonvulsant activity in ip dosed albino CF-1 mouse assessed as protection against 44 mA current-induced seizure after 0.25 hrs by 6 Hz psychomotor test; assay type: functional; conditions: CF-1, ip
# Mus musculus [10] = test: Anticonvulsant activity in ip dosed albino CF-1 mouse assessed as protection against 32 mA current-induced seizure after 1 hr by 6 Hz psychomotor test; assay type: functional; conditions: CF-1, ip
# Mus musculus [11] = test: Anticonvulsant activity in ip dosed albino CF-1 mouse assessed as protection against subcutaneous pentylenetetrazole-induced seizures measured after 1 hr; assay type: functional; conditions: CF-1, 1 h
# Histamine H3 receptor [12] = biological target: Histamine H3 receptor (Rattus norvegicus, UniProt Q9QYN8); test: Displacement of [3H]-(R)alpha-MeHA from rat brain H3 receptor
# Sequence of Histamine H3 receptor (Rattus norvegicus, UniProt Q9QYN8) (Q9QYN8 whole entry): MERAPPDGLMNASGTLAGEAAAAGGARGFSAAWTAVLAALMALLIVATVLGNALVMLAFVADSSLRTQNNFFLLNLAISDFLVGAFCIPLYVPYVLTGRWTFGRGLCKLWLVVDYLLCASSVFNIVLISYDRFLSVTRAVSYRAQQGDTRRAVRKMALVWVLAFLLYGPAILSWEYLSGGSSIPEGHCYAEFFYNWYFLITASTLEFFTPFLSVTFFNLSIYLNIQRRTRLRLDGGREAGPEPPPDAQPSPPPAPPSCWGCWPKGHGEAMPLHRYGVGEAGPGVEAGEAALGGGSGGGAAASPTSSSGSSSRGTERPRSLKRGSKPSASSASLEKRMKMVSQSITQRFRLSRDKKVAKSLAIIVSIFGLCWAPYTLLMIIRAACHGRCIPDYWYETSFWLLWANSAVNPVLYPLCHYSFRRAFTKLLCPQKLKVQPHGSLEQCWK
# [13] = Neurotoxicity in ip dosed albino CF-1 mouse after 0.25 hrs by rotarod test; assay type: toxicity, organism-based; conditions: in vivo
# Mus musculus [14] = test: Anticonvulsant activity in ip dosed albino CF-1 mouse assessed as protection against maximal electroshock-induced seizures after 1 hr; assay type: functional; conditions: CF-1, ip
# [15] = Therapeutic index, ratio of ip dosed albino CF-1 mouse TD50 to ip dosed albino CF-1 mouse ED50 for MES assay; assay type: toxicity, organism-based; conditions: in vivo, read-out: TI
# Histamine H1 receptor = Histamine H1 receptor (Cavia porcellus, UniProt P31389); test: Antagonist potency at histamine H1 receptor in guinea-pig ileum assessed as inhibition of histamine-induced contractions at 0.3 to 3 uM after 15 mins; assay type: functional; conditions: read-out: pA2 (converted)
# Sequence of Histamine H1 receptor (P31389 whole entry): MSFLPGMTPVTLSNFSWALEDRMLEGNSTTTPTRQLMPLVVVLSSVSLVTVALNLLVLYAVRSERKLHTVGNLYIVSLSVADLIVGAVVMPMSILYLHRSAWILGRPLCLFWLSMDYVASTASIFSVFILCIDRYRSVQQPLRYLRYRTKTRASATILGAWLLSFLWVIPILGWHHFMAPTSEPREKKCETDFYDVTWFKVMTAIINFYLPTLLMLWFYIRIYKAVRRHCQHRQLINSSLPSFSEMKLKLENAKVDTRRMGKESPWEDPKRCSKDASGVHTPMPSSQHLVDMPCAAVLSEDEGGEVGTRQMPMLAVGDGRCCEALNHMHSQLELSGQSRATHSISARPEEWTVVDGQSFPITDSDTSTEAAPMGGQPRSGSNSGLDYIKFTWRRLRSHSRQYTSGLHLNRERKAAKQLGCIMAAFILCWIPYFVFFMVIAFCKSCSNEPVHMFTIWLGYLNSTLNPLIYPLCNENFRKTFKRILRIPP
# [16] = biological target: Histamine H1 receptor (Homo sapiens) (UniProt P35367); test: Displacement of [3H]-pyrilamine from human histamine H1 receptor expressed in CHO cell membranes at 1 uM relative to chlorpheniramine
# Sequence of Histamine H1 receptor (Homo sapiens) (P35367 whole entry): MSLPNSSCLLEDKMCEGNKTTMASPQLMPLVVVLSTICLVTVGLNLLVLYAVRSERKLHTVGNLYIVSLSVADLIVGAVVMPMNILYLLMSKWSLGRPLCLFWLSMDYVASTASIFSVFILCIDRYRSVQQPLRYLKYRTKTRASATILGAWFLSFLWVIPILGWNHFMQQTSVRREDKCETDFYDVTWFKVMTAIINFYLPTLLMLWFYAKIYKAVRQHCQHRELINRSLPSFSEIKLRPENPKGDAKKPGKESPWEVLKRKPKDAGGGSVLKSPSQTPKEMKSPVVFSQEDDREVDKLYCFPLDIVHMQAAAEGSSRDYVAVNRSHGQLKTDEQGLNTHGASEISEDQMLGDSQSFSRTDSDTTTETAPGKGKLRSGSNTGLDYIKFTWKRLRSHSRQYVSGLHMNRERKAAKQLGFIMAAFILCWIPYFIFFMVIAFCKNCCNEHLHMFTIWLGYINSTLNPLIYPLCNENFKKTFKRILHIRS
# [17] = biological target: Histamine H4 receptor (Homo sapiens) (UniProt Q9H3N8); test: Displacement of [3H]-Histamine from human histamine H4 receptor expressed in insect sf9 cell membranes at 1 uM relative to JNJ-7777120
# [18] = biological target: D(3) dopamine receptor (Homo sapiens) (UniProt P35462); test: Displacement of [3H]-spiperone from human dopamine D3 receptor expressed in CHO cell membranes at 1 uM relative to haloperidol
# Sequence of D(3) dopamine receptor (Homo sapiens) (P35462 whole entry): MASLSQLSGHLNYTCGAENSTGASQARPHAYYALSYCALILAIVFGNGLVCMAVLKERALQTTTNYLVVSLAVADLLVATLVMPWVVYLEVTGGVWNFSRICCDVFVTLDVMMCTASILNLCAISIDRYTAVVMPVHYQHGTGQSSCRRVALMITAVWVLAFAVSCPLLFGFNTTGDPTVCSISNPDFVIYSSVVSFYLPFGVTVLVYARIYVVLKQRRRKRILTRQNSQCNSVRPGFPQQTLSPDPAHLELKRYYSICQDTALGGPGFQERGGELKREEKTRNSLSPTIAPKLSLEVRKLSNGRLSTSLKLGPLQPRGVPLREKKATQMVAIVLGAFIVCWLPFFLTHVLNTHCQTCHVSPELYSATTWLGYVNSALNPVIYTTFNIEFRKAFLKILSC
# Mus musculus [19] = test: Cognition enhancing effect in albino Swiss CD-1 mouse assessed as reversal of scopolamine-induced amnesia by measuring latency time at 10 mg/kg, ip treated 30 mins prior to acquisition trial followed by scopolamine challenge immediately after acquisition trial by passive avoidance test (reference value: 39.31 +/- 4.01 secs); assay type: functional
# Histamine H3 receptor [20] = biological target: T1, Histamine H3 receptor; test: Antagonist activity at human H3 receptor expressed in HEK293 cells assessed as inhibition of RAMH-induced reduction of forskolin-stimulated cAMP accumulation after 30 mins by Ulight-based TR-FRET assay; assay type: functional, cell-based
# [21] = biological target: D(1B) dopamine receptor (Homo sapiens) (UniProt P21918); test: Displacement of [3H]-SCH23390 from human dopamine D5 receptor expressed in HEK293 cell membranes at 1 uM relative to fluphenazin
# Rattus norvegicus [22] = test: In vivo antagonist activity at H3 receptor in RAMH-induced dipsogenic ip dosed Wistar (Krf:(WI) WU) rat model assessed as inhibition of RAMH-water intake administered 30 mins prior to RAMH induction; assay type: functional
# [23] = biological target: 5-hydroxytryptamine receptor 6 (Homo sapiens, UniProt P50406); test: Displacement of [3H]-LSD from human 5-HT6 receptor expressed in HEK293 cell membranes after 1 hr
# Sequence of 5-hydroxytryptamine receptor 6 (P50406 whole entry): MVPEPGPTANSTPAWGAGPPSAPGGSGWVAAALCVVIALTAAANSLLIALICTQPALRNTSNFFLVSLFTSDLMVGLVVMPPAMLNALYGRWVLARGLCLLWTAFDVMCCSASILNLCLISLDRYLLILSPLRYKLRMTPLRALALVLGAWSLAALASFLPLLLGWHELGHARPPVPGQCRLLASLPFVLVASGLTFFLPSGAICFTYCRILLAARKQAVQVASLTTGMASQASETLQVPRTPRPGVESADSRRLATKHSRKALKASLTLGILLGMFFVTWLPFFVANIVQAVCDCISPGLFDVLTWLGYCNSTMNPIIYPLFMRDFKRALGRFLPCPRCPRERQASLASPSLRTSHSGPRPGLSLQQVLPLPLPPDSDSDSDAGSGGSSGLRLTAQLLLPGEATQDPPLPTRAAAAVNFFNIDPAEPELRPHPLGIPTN
# Salmonella typhimurium [24] = test: Mutagenicity in Salmonella typhimurium TA100 assessed as increase in number of revertants at 1 uM after 90 mins by Ames test; assay type: toxicity, organism-based; conditions: salmonella enterica subsp. enterica serovar typhimurium, 1.5 h
# Salmonella typhimurium [25] = test: Mutagenicity in Salmonella typhimurium TA100 assessed as increase in number of revertants at 10 uM after 90 mins by Ames test; assay type: toxicity, organism-based; conditions: salmonella enterica subsp. enterica serovar typhimurium, 1.5 h
# [26] = biological target: 5-hydroxytryptamine receptor 2A (Homo sapiens, UniProt P28223); test: Displacement of [3H]-ketanserin from human 5-HT2A receptor expressed in CHO cell membranes after 1 hr
# Sequence of 5-hydroxytryptamine receptor 2A (P28223 whole entry): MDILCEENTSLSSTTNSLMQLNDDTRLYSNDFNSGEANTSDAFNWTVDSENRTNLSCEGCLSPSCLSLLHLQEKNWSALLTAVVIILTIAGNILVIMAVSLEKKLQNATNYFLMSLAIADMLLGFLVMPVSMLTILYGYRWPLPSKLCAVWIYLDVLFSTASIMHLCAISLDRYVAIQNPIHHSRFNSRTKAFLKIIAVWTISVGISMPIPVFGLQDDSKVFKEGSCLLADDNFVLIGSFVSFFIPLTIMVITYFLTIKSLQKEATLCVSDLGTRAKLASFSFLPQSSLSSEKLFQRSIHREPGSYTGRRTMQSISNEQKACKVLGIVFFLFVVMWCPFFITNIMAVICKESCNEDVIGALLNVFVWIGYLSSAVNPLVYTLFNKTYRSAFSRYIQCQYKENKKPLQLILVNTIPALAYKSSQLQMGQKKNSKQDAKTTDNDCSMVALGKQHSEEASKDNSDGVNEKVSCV
# Mus musculus [27] = test: Cognition enhancing effect in albino Swiss CD-1 mouse assessed as reversal of scopolamine-induced amnesia at 20 to 30 mg/kg, ip treated 30 mins prior to acquisition trial followed by scopolamine challenge immediately after acquisition trial by passive avoidance test (reference value: 39.31 +/- 4.01 secs); assay type: functional, organism-based
# [28] = biological target: D(2) dopamine receptor (Homo sapiens) (UniProt P14416); test: Displacement of [3H]-spiperone from human dopamine D2 receptor expressed in CHO cell membranes at 1 uM relative to haloperidol
# Sequence of D(2) dopamine receptor (Homo sapiens) (P14416 whole entry): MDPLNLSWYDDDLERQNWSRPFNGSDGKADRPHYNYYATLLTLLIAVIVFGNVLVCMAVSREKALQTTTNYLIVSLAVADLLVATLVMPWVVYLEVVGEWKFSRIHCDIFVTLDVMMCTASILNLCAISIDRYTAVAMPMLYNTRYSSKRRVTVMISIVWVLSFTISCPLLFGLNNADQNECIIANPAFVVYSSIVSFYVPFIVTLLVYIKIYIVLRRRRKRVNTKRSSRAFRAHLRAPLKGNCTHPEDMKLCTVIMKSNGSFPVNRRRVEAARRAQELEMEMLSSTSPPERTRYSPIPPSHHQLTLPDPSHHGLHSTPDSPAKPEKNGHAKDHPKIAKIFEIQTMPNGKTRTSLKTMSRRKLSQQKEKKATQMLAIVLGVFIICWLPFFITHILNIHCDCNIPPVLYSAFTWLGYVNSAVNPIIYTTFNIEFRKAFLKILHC
# [29] = biological target: Histamine H1 receptor (Cavia porcellus) (UniProt P31389); test: Agonist activity at histamine H1 receptor in guinea-pig ileum assessed as induction of contractions at 1 to 3 uM after 15 mins; assay type: functional
# Sequence of Histamine H1 receptor (Cavia porcellus) (P31389 whole entry): as the sequence (P31389 whole entry) above
# [30] = biological target: Histamine H1 receptor (Cavia porcellus) (UniProt P31389); test: Antagonist activity at histamine H1 receptor in guinea-pig ileum assessed as inhibition of histamine-induced contractions after 15 mins; assay type: functional
# [31] = biological target: 5-hydroxytryptamine receptor 7 (Homo sapiens, UniProt P34969); test: Displacement of [3H]-5-carboxyamidotryptamine from human 5-HT7 receptor expressed in HEK293 cell membranes after 1 hr
# CYP3A4 = CYP3A4 (Homo sapiens, UniProt P08684); test: Inhibition of CYP3A4 (unknown origin) at 25 uM by CYP3A4 P450-Glo assay; assay type: ADME
# Sequence of CYP3A4 (P08684 whole entry): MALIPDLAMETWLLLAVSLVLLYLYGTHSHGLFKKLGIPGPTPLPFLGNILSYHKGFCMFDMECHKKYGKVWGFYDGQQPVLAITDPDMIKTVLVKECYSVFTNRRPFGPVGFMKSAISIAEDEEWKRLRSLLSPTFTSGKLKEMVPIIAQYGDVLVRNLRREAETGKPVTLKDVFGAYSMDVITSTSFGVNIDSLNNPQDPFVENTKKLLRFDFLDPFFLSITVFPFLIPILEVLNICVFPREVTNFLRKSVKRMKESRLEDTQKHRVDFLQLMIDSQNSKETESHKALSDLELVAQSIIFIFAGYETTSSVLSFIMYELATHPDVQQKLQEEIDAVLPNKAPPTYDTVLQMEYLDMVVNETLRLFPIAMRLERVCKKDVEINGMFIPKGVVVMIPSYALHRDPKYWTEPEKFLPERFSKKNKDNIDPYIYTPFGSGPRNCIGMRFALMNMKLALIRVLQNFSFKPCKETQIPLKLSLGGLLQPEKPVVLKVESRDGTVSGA
# [32] = biological target: Muscarinic acetylcholine receptor M3 (Cavia porcellus) (UniProt Q8VH26); test: Agonist activity at muscarinic M3 receptor in guinea-pig ileum assessed as induction of contractions at 1 to 3 uM after 15 mins; assay type: functional
# Sequence of Muscarinic acetylcholine receptor M3 (Cavia porcellus) (Q8VH26 1-587): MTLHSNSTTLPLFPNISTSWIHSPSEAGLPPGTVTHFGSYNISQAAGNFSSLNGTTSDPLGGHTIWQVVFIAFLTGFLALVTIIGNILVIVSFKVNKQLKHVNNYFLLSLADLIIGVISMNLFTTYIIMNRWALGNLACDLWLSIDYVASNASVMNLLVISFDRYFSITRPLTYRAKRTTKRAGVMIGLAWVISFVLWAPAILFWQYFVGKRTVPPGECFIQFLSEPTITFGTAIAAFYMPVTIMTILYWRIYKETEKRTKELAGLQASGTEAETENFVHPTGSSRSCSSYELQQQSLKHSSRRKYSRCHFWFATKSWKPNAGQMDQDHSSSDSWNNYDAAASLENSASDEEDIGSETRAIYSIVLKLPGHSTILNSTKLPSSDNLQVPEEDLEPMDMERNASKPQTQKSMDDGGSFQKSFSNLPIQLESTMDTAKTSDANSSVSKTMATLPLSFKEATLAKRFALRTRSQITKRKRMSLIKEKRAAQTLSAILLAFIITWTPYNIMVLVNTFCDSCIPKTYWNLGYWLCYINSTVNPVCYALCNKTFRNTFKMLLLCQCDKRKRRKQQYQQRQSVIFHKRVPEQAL
# [33] = biological target: D(1A) dopamine receptor (Homo sapiens) (UniProt P21728); test: Displacement of [3H]-SCH23390 from human dopamine D1 receptor expressed in HEK293 cell membranes at 1 uM relative to fluphenazin
compound,measurement,setting,value
c1ccc2cc(OCCCCCN3CCCCCC3)ccc2c1,Ki,Histamine H3 receptor [1],57.3 nM
CC1CCN(CCCCCCOc2ccc3ccccc3c2)CC1,Ki,Histamine H3 receptor [1],92.1 nM
CN1CC[C@]23c4c5ccc(O)c4O[C@H]2[C@@H](O)C=C[C@H]3[C@H]1C5 [MORPHINE],ED50,Mus musculus [2],2.38 mg/kg
CC1CCCN(CCCCCCOc2cccc3ccccc23)C1 (stereo unspecified),Ki,Histamine H3 receptor [1],47.6 nM
c1ccc2cc(OCCCCCN3CCCCC3)ccc2c1,Ki,Histamine H3 receptor [1],53.5 nM
c1ccc2c(OCCCCCCN3CCCCC3)cccc2c1,Ki,Histamine H3 receptor [1],52.9 nM
Clc1ccc(CCCOCCCN2CCCCC2)cc1 [PITOLISANT],inhibition in vivo at 1.25 mg/kg,Rattus norvegicus [3],87.4%
c1ccc2c(OCCCCCCN3CCCCCC3)cccc2c1,ED50,Mus musculus [4],18.1 mg/kg
same,Ki,Histamine H3 receptor [1],69.3 nM
same,Time,Mus musculus [5],68.64 s
same,Ki,Histamine H3 receptor [6],69 nM
same,ED50,Mus musculus [2],28.3 mg/kg
same,ED50,Mus musculus [7],21.66 mg/kg
same,Time,Mus musculus [8],87.77 s
CC1CCN(CCCCCOc2cccc3ccccc23)CC1,Ki,Histamine H3 receptor [1],43.3 nM
c1ccc2cc(OCCCCCCN3CCCCC3)ccc2c1,Ki,Histamine H3 receptor [1],61.8 nM
COc1cccc2c1C(=O)c1c(O)c3c(c(O)c1C2=O)C[C@@](O)(C(=O)CO)C[C@@H]3O[C@H]1C[C@H](N)[C@H](O)[C@H](C)O1 [DOXORUBICIN],IC50,HepG2,550 nM
same,IC50,IMR-32,50 nM
same,IC50,HEK293,360 nM
CC1CCCN(CCCCCCOc2ccc3ccccc3c2)C1 (stereo unspecified),Ki,Histamine H3 receptor [1],55.9 nM
c1ccc2cc(OCCCCCCN3CCCCCC3)ccc2c1,Ki,Histamine H3 receptor [1],69.3 nM
CC1CCCN(CCCCCOc2ccc3ccccc3c2)C1 (stereo unspecified),Ki,Histamine H3 receptor [1],42.3 nM
CC1CCN(CCCCCCOc2cccc3ccccc23)CC1,Ki,Histamine H3 receptor [1],126 nM
CCCC(CCC)C(=O)O [VALPROIC ACID],ED50,Mus musculus [9],310 mg/kg
same,ED50,Mus musculus [10],126 mg/kg
same,ED50,Mus musculus [11],220 mg/kg
CC(=O)Oc1ccccc1C(=O)O [ASPIRIN],ED50,Mus musculus [4],25.2 mg/kg
S=C(NC1CCCCC1)N1CCC(c2cnc[nH]2)CC1 [THIOPERAMIDE],Ki,Histamine H3 receptor [12],2.1 nM
CC1CCN(CCCCCOc2ccc3ccccc3c2)CC1,Ki,Histamine H3 receptor [1],95 nM
Nc1nnc(-c2cccc(Cl)c2Cl)c(N)n1 [LAMOTRIGINE],ED50,Mus musculus [9],> 60 mg/kg
same,TD50 at 0.25 h,[13],30 mg/kg
same,ED50,Mus musculus [10],> 60 mg/kg
same,ED50,Mus musculus [11],> 40 mg/kg
same,ED50,Mus musculus [14],7.47 mg/kg
same,selectivity ratio,[15],4
c1ccc2c(OCCCCCN3CCCCCC3)cccc2c1,Kb,Histamine H1 receptor,708 nM
same,inhibition,[16],19%
same,inhibition,[17],29%
same,inhibition,[18],17%
same,ED50,Mus musculus [4],20.8 mg/kg
same,Ki,Histamine H3 receptor [1],21.9 nM
same,Time,Mus musculus [19],83.61 s
same,IC50,Histamine H3 receptor [20],312 nM
same,inhibition,Histamine H3 receptor [20],Dose-dependent effect
same,IC50,HepG2,25300 nM
same,inhibition,[21],-10%
same,ED50,Rattus norvegicus [22],3.68 mg/kg
same,Ki,[23],1840 nM
same,Activity,Salmonella typhimurium [24],Non-Toxic
same,Activity,Salmonella typhimurium [25],Non-Toxic
same,Ki,[26],2610 nM
same,Activity,Mus musculus [27],inactive
same,inhibition,[28],12%
same,Activity,[29],inactive
same,inhibition,[30],Dose-dependent effect
same,IC50,IMR-32,35700 nM
same,Ki,[31],2800 nM
same,inhibition at 25 µM,CYP3A4,50%
same,Activity,[32],inactive
same,IC50,HEK293,> 50000 nM
same,ED50,Mus musculus [2],30.6 mg/kg
same,inhibition,[33],14%
same,ED50,Mus musculus [7],20.47 mg/kg
same,Time,Mus musculus [8],91.47 s
CC1CCCN(CCCCCOc2cccc3ccccc23)C1 (stereo unspecified),Ki,Histamine H3 receptor [1],32.8 nM
same,IC50,HepG2,38600 nM
same,Activity,Salmonella typhimurium [24],Non-Toxic
same,Activity,Salmonella typhimurium [25],Non-Toxic
same,IC50,IMR-32,32300 nM
same,inhibition at 25 µM,CYP3A4,50%
same,IC50,HEK293,> 50000 nM
